Data: US8633242B2, “Benzylidene indanones and processes for preparation and use thereof” (Council of Scientific and Industrial Research, priority 2011, dated 2014)
“Also recorded” adds a separate entry of the source. Read-outs that look alike come from different tables or passages of the source.

Assays:
Swiss albino mice = conditions: mouse, in vivo; for ALKP / Body weight / Haemoglobin / SGOT / SGPT / Serum creatinine / Serum total cholesterol / Serum triglycerides: po
Protocol: In view of potent anti-cancer activity of compound 8 in in-vitro model, acute oral toxicity of the same was carried out in Swiss albino mice for its further development into drug product. For the study, 30 mice (15 male and 15 female) were taken and divided into five groups comprising 3 male and 3 female mice in each group weighing between 20-25 g. The animals were maintained at 22±5° C. with humidity control and also on an automatic dark and light cycle of 12 hours. The animals were fed with the standard rat feed and provided ad libitum drinking water. Mice of group 1 were kept as control and animals of groups […] were kept as experimental. The animals were acclimatized for 7 days in the experimental environment prior to the actual experimentation. The test compound was suspended by ultrasonication in cremophore EL (20% in distilled water) using traces of ethanol as a co-solvent and was given at 5, 50, 300 and 1000 mg/kg body weight to animals of groups 2, 3, 4 and 5 respectively. Control animals received only vehicle.
The animals were checked for mortality and any signs of ill health at hourly interval on the day of administration of drug and there after a daily general case side clinical examination was carried out including changes in skin, mucous membrane, eyes, occurrence of secretion and excretion and also responses like lachrymation, pilo-erection respiratory patterns etc. Also changes in gait. posture and response to handling were also recorded (Allan at al., 2007). In addition to observational study, body weights were recorded and blood and serum samples were collected from all the animals on 7th day after experiment and were analysed for total RBC, WBC, differential leucoyte count haemoglobin percentage and biochemical parameters like total cholesterol, triglycerides, creatinine, SGPT and SGOT activity. The animals were then sacrificed and were necropsed for any gross pathological changes. Weights of vital organs like liver, heart, kidney etc. were recorded (Chanda et al., 2009).

DU-145 (prostate) = assay: Sulphorhodamine B cytotoxicity assay, DU-145; assay type: cell-based, human; set-up: key to Human cancer cell lines IC50, DU-145 (prostate): Inactive: inactive, if IC50 > 100 μM; conditions: SRB assay, 48 hours incubation
How it was run: (§1)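 Cells grown in RPMI-1640 with 10% FBS for 24 h, then exposed to compounds (DMSO stocks diluted in medium) for 48 h at 37 °C, 5% CO2. TCA-fixed cells stained with sulforhodamine B and the solubilised dye read at 540 nm as a measure of growth.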

MCF-7 (Breast cancer) = assay: Sulphorhodamine B cytotoxicity assay, MCF-7; assay type: cell-based, human
How it was run: as §1

A549 (Lung) = assay: Sulphorhodamine B cytotoxicity assay, A549; assay type: cell-based, human; conditions: Homo sapiens, A549; SRB assay, 48 hours incubation; read-out: Human cancer cell lines IC50, A549 (Lung)
How it was run: as §1

## COc1cc(C2/C(=C/c3ccc4c(c3)OCO4)C(=O)c3cc(OC)c(OC)c(OC)c32)cc(OC)c1OC (racemic) [Compound 8, 2-(3,4-Methylenedioxybenzylidine), 3-(3,4,5-trimethoxyphenyl), 4,5,6-trimethoxyindanone]
Swiss albino mice; 300 mg/kg
  observational changes, morbidity and mortality: No observational changes, morbidity and mortality
  ALKP: 90.11 ± 5.42 U/L
  Body weight: 29.35 ± 1.63 g
  Haemoglobin: 11.46 ± 0.76 g/dL
  SGOT: 26.55 ± 3.23 U/L
  SGPT: 9.16 ± 1.14 U/L
  Serum creatinine: 0.56 ± 0.07 mg/dL
  Serum total cholesterol: 117.57 ± 3.45 mg/dL
  Serum triglycerides: 113.15 ± 3.65 mg/dL
Swiss albino mice; 5 mg/kg
  ALKP: 82.51 ± 3.04 U/L
  Body weight: 30.38 ± 0.77 g
  Haemoglobin: 11.31 ± 1.14 g/dL
  SGOT: 18.74 ± 1.54 U/L
  SGPT: 6.90 ± 0.17 U/L
  Serum creatinine: 0.53 ± 0.04 mg/dL
  Serum total cholesterol: 109.42 ± 5.46 mg/dL
  Serum triglycerides: 112.69 ± 3.75 mg/dL
Swiss albino mice; 50 mg/kg
  ALKP: 94.24 ± 8.83 U/L
  Body weight: 28.37 ± 1.42 g
  Haemoglobin: 12.93 ± 0.98 g/dL
  SGOT: 20.66 ± 1.15 U/L
  SGPT: 9.77 ± 0.77 U/L
  Serum creatinine: 0.45 ± 0.05 mg/dL
  Serum total cholesterol: 125.69 ± 5.90 mg/dL
  Serum triglycerides: 90.62 ± 8.41 mg/dL
Swiss albino mice; 1000 mg/kg
  Body weight: 30.69 ± 0.83 g
  Haemoglobin: 12.21 ± 1.46 g/dL
  SGOT: 19.38 ± 3.49 U/L
  Serum creatinine: 0.42 ± 0.09 mg/dL
  Serum total cholesterol: 118.60 ± 6.07 mg/dL
  Serum triglycerides: 97.44 ± 6.96 mg/dL
DU-145 (prostate)
  Human cancer cell lines IC50, DU-145 (prostate): Inactive
MCF-7 (Breast cancer)
  anticancer activity against human breast cancer cells (MCF-7), in words: better activity; also recorded: potent anticancer activity
MCF-7 (Breast cancer); Homo sapiens, MCF7, SRB assay, 48 hours incubation, read-out: Human cancer cell lines IC50, MCF-7 (Breast cancer)
  IC50: 0.01 µM
A549 (Lung)
  IC50: 11 µM
